Assay results from PMC4697445 (Journal of medicinal chemistry, 2015).
Like-named read-outs stand apart in the source and are kept apart here.

How the values were obtained:
[1] = Biodistribution in rats; format: in vivo, male Sprague-Dawley rats; details: rat; for in vivo metabolic defluorination (bone activity): 5 to 60 min p.i.; for blood uptake / bone uptake / brain uptake / fat uptake / kidney uptake / liver uptake / muscle uptake: iv, mean ± SD, n = 4
[2] = target: PDE10A (Rattus norvegicus, UniProt Q9QYJ6); details: by 30 min p.i.
[3] = test system: PDE10A
[4] = for % peak 1 (radiometabolite, retention time ~3.5 min) / % peak 2 (radiometabolite, retention time ~7.5 min): NHP plasma

PDE10A (Rattus norvegicus, UniProt Q9QYJ6), sequence (Q9QYJ6 whole entry): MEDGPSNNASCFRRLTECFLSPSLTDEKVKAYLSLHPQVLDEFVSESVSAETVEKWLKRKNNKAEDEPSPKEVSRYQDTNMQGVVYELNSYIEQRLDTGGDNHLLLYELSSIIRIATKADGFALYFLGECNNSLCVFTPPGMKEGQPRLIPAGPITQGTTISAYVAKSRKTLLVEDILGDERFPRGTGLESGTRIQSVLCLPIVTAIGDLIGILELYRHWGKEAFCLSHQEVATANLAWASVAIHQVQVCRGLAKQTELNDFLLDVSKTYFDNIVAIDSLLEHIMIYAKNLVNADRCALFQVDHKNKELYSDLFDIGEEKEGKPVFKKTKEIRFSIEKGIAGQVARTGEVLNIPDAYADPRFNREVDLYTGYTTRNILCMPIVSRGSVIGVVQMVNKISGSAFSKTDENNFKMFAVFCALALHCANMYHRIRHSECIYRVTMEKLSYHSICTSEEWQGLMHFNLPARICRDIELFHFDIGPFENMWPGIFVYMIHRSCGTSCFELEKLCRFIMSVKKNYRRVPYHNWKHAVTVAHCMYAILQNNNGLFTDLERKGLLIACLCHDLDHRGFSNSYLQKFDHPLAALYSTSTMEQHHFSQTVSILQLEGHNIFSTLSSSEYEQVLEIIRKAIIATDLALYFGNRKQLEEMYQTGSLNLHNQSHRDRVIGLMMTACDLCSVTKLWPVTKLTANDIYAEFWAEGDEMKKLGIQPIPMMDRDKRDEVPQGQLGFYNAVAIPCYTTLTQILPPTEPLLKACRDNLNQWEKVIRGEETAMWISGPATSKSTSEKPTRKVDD

Row | blood uptake ([1]; 5 min p.i.) [%ID/g] | bone uptake ([1]; 5 min p.i.) [%ID/g] | brain uptake ([1]; 5 min p.i.) [%ID/g] | fat uptake ([1]; 5 min p.i.) [%ID/g] | kidney uptake ([1]; 5 min p.i.) [%ID/g] | liver uptake ([1]; 5 min p.i.) [%ID/g] | muscle uptake ([1]; 5 min p.i.) [%ID/g] | bone uptake ([1]; 30 min p.i.) [%ID/g] | brain uptake ([1]; 30 min p.i.) [%ID/g] | fat uptake ([1]; 30 min p.i.) [%ID/g] | kidney uptake ([1]; 30 min p.i.) [%ID/g] | liver uptake ([1]; 30 min p.i.) [%ID/g] | muscle uptake ([1]; 30 min p.i.) [%ID/g] | bone uptake ([1]; 60 min p.i.) [%ID/g] | brain uptake ([1]; 60 min p.i.) [%ID/g] | fat uptake ([1]; 60 min p.i.) [%ID/g] | kidney uptake ([1]; 60 min p.i.) [%ID/g] | liver uptake ([1]; 60 min p.i.) [%ID/g] | muscle uptake ([1]; 60 min p.i.) [%ID/g] | Compound | in vivo metabolic defluorination (bone activity) [1] | further results
1 | – | – | – | – | – | – | – | – | – | – | – | – | – | – | – | – | – | – | – | Cn1cc(-c2ccncc2)c(-c2ccc(OCc3cc(F)c4ccccc4n3)cc2)n1 [Compound 18a, 4-Fluoro-2-((4-(1-methyl-4-(pyridin-4-yl)-1H-pyrazol-3-yl)-phenoxy)methyl)quinoline] | undergo in vivo metabolic defluorination in rodents | –
2 | – | – | – | – | – | – | – | – | – | – | – | – | – | – | – | – | – | – | – | Cn1cc(-c2ccncc2)c(-c2ccc(OCc3cc(CF)c4ccccc4n3)cc2)n1 [Compound 18b, 4-(Fluoromethyl)-2-((4-(1-methyl-4-(pyridin-4-yl)-1H-pyrazol-3-yl)phenoxy)methyl) quinoline] | undergo in vivo metabolic defluorination in rodents | –
3 | – | – | – | – | – | – | – | – | – | – | – | – | – | – | – | – | – | – | – | Cn1cc(-c2ccncc2)c(-c2ccc(OCc3cc(CCCF)c4ccccc4n3)cc2)n1 [Compound 18c, 4-(3-Fluoropropyl)-2-((4-(1-methyl-4-(pyridin-4-yl)-1H-pyrazol-3-yl)phenoxy)methyl) quinoline] | undergo in vivo metabolic defluorination in rodents | –
4 | 0.353 ± 0.063 | 0.522 ± 0.116 | 0.410 ± 0.063 | 0.404 ± 0.102 | 1.887 ± 0.296 | 6.87 ± 1.27 | 0.339 ± 0.053 | 4.035 ± 0.153 | 0.191 ± 0.036 | 0.576 ± 0.154 | 1.034 ± 0.131 | 3.00 ± 0.91 | 0.236 ± 0.019 | 6.300 ± 0.314 | 0.125 ± 0.009 | 0.477 ± 0.099 | 0.533 ± 0.119 | 1.60 ± 0.87 | 0.092 ± 0.010 | Cn1cc(-c2ccncc2)c(-c2ccc(OCc3cc([18F])c4ccccc4n3)cc2)n1 [[^18F]18a, 4-(Fluoro-^18F)-2-((4-(1-methyl-4-(pyridin-4-yl)-1H-pyrazol-3-yl)phenoxy)methyl)quinoline] | – | blood uptake ([1]; 30 min p.i.): 0.376 ± 0.033 %ID/g; blood uptake ([1]; 60 min p.i.): 0.150 ± 0.021 %ID/g; ratio of activity in the striatum versus nontarget brain regions [2]: > 2 fold
5 | 0.471 ± 0.040 | 0.421 ± 0.063 | 0.128 ± 0.012 | 0.343 ± 0.153 | 1.799 ± 0.207 | 10.16 ± 1.86 | 0.227 ± 0.042 | 4.055 ± 1.305 | 0.094 ± 0.023 | 0.352 ± 0.081 | 1.351 ± 0.216 | 4.01 ± 1.34 | 0.174 ± 0.042 | 5.620 ± 1.132 | 0.069 ± 0.008 | 0.222 ± 0.029 | 0.573 ± 0.134 | 3.10 ± 0.61 | 0.107 ± 0.032 | Cn1cc(-c2ccncc2)c(-c2ccc(OCc3cc(C[18F])c4ccccc4n3)cc2)n1 [[^18F]18b, 4-((Fluoro-^18F)methyl)-2-((4-(1-methyl-4-(pyridin-4-yl)-1H-pyrazol-3-yl)phenoxy)methyl) quinoline] | – | blood uptake ([1]; 30 min p.i.): 0.416 ± 0.062 %ID/g; blood uptake ([1]; 60 min p.i.): 0.201 ± 0.026 %ID/g; ratio of activity in the striatum versus nontarget brain regions [2]: > 2 fold
6 | 0.459 ± 0.049 | 0.222 ± 0.014 | 0.114 ± 0.015 | 0.220 ± 0.100 | 2.471 ± 0.487 | 9.99 ± 1.27 | 0.223 ± 0.067 | 1.418 ± 0.182 | 0.046 ± 0.006 | 0.491 ± 0.035 | 1.364 ± 0.077 | 5.67 ± 0.73 | 0.178 ± 0.016 | 2.037 ± 0.303 | 0.026 ± 0.005 | 0.368 ± 0.077 | 1.216 ± 0.180 | 6.79 ± 2.49 | 0.103 ± 0.030 | Cn1cc(-c2ccncc2)c(-c2ccc(OCc3cc(CCC[18F])c4ccccc4n3)cc2)n1 [[^18F]18c, 4-(3-(Fluoro-^18F)propyl)-2-((4-(1-methyl-4-(pyridin-4-yl)-1H-pyrazol-3-yl)phenoxy)methyl) quinoline] | – | ratio of activity in the striatum versus nontarget brain regions [2]: > 2 fold
7 | 0.362 ± 0.048 | 0.189 ± 0.004 | 0.118 ± 0.012 | 0.213 ± 0.007 | 2.200 ± 0.158 | 6.88 ± 1.15 | 0.247 ± 0.031 | 0.091 ± 0.012 | 0.078 ± 0.009 | 0.302 ± 0.033 | 1.055 ± 0.218 | 6.98 ± 0.99 | 0.134 ± 0.019 | 0.142 ± 0.001 | 0.101 ± 0.002 | 0.259 ± 0.025 | 0.765 ± 0.153 | 3.29 ± 0.56 | 0.132 ± 0.011 | Cn1cc(-c2ccncc2)c(-c2ccc(OCc3cc(OCC[18F])c4ccccc4n3)cc2)n1 [[^18F]18d, 4-((2-Fluoro-^18F)ethoxy)-2-((4-(1-methyl-4-(pyridin-4-yl)-1H-pyrazol-3-yl)phenoxy)methyl)quinoline] | appeared more stable to in vivo defluorination | blood uptake ([1]; 30 min p.i.): 0.226 ± 0.073 %ID/g; blood uptake ([1]; 60 min p.i.): 0.215 ± 0.008 %ID/g; ratios of uptake in the striatum vs nontarget brain regions ([3]; cynomolgus macaque microPET, by 40 min p.i.): > 3 fold; visualization of striatum in microPET ([3]; cynomolgus macaque, summed images 0 to 180 min): clear visualization of the PDE10A-enriched striatum; % peak 1 (radiometabolite, retention time ~3.5 min) ([4]; 2 min p.i.): 1%; % peak 2 (radiometabolite, retention time ~7.5 min) ([4]; 2 min p.i.): 0%; % peak 1 (radiometabolite, retention time ~3.5 min) ([4]; 15 min p.i.): 4%; % peak 2 (radiometabolite, retention time ~7.5 min) ([4]; 15 min p.i.): 0%; % peak 1 (radiometabolite, retention time ~3.5 min) ([4]; 30 min p.i.): 7%; % peak 2 (radiometabolite, retention time ~7.5 min) ([4]; 30 min p.i.): 1%; % peak 1 (radiometabolite, retention time ~3.5 min) ([4]; 60 min p.i.): 19%; % peak 2 (radiometabolite, retention time ~7.5 min) ([4]; 60 min p.i.): 5%; % peak 1 (radiometabolite, retention time ~3.5 min) ([4]; 90 min p.i.): 32%; % peak 2 (radiometabolite, retention time ~7.5 min) ([4]; 90 min p.i.): 9%; radioactivity of arterial blood found in the plasma ([4]; plasma separated from packed red cells): 65–75%; ratio of activity in the striatum versus nontarget brain regions [2]: > 2 fold
8 | 0.440 ± 0.038 | 0.133 ± 0.028 | 0.213 ± 0.039 | 0.139 ± 0.031 | 0.981 ± 0.163 | 3.99 ± 0.82 | 0.155 ± 0.040 | 0.170 ± 0.030 | 0.353 ± 0.021 | 0.139 ± 0.037 | 0.632 ± 0.123 | 0.987 ± 0.038 | 0.265 ± 0.117 | 0.337 ± 0.072 | 0.343 ± 0.033 | 0.066 ± 0.018 | 0.485 ± 0.045 | 0.554 ± 0.064 | 0.228 ± 0.058 | Cn1cc(-c2ccncc2)c(-c2ccc(OCc3cc(COCC[18F])c4ccccc4n3)cc2)n1 [[^18F]18e, 4-((2-(Fluoro-^18F)ethoxy)methyl)-2-((4-(1-methyl-4-(pyridin-4-yl)-1H-pyrazol-3-yl)phenoxy)methyl)quinoline] | appeared more stable to in vivo defluorination | blood uptake ([1]; 30 min p.i.): 0.424 ± 0.074 %ID/g; blood uptake ([1]; 60 min p.i.): 0.401 ± 0.029 %ID/g

Row | Compound | blood uptake ([1]; 5 min p.i.) [%ID/g] | bone uptake ([1]; 5 min p.i.) [%ID/g] | brain uptake ([1]; 5 min p.i.) [%ID/g] | fat uptake ([1]; 5 min p.i.) [%ID/g] | kidney uptake ([1]; 5 min p.i.) [%ID/g] | liver uptake ([1]; 5 min p.i.) [%ID/g] | muscle uptake ([1]; 5 min p.i.) [%ID/g] | bone uptake ([1]; 30 min p.i.) [%ID/g] | brain uptake ([1]; 30 min p.i.) [%ID/g] | fat uptake ([1]; 30 min p.i.) [%ID/g] | kidney uptake ([1]; 30 min p.i.) [%ID/g] | liver uptake ([1]; 30 min p.i.) [%ID/g] | muscle uptake ([1]; 30 min p.i.) [%ID/g] | bone uptake ([1]; 60 min p.i.) [%ID/g] | brain uptake ([1]; 60 min p.i.) [%ID/g] | fat uptake ([1]; 60 min p.i.) [%ID/g] | kidney uptake ([1]; 60 min p.i.) [%ID/g] | liver uptake ([1]; 60 min p.i.) [%ID/g] | muscle uptake ([1]; 60 min p.i.) [%ID/g] | in vivo metabolic defluorination (bone activity) [1] | further results
9 | Cn1cc(-c2ccncc2)c(-c2ccc(OCc3cc(OCCOCCOCC[18F])c4ccccc4n3)cc2)n1 [[^18F]18g] | 0.699 ± 0.090 | 0.487 ± 0.044 | 0.353 ± 0.052 | 0.225 ± 0.086 | 5.969 ± 0.744 | 4.74 ± 1.10 | 0.419 ± 0.090 | 0.441 ± 0.049 | 0.509 ± 0.038 | 0.254 ± 0.051 | 1.793 ± 0.291 | 1.53 ± 0.49 | 0.488 ± 0.086 | 0.490 ± 0.035 | 0.421 ± 0.028 | 0.123 ± 0.021 | 1.037 ± 0.170 | 0.527 ± 0.068 | 0.379 ± 0.027 | appeared more stable to in vivo defluorination | blood uptake ([1]; 30 min p.i.): 0.771 ± 0.061 %ID/g; blood uptake ([1]; 60 min p.i.): 0.646 ± 0.045 %ID/g
